Source: US11000033B2, “Ketone or oxime compound, and herbicide” (NISSAN CHEMICAL CORPORATION, priority 2014, dated 2021)

Legend:
Type in all cases: in vivo
Digitaria ciliaris = assay: Test Example 5: herbicidal effect by foliage application, plastic box (symbol F); settings: 320 g/ha, 3 weeks after application
Summary of the method: (§1)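 Sowing in sterilized diluvial soil, 14 days' greenhouse growth at 25° C. to 30° C., then uniform small-sprayer foliar application of aqueous emulsion dilution; plants scored three weeks afterwards.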

Monochoria vaginalis = assay: Test Example 2: herbicidal activity, application during weed generation in submerged conditions (symbol C); settings: Table 23; application herbicide amount 320 g/ha; grade 0-5 by criteria of Test Example 1
Summary of the method: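 Compound was applied as a water-diluted emulsion into the standing water of flooded pots (4 cm) once co-sown weeds reached one to two leaves. Greenhouse temperature was 25° C. to 30° C., soil was alluvial, and each species was rated visually after 3 weeks.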

Setaria viridis [1] = assay: Test Example 4: herbicidal effect by soil treatment (symbol G); settings: application herbicide amount 320 g/ha
Summary of the method: (§2)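 Seeds were sown in sterilized diluvial soil, covered with about 1.5 cm of soil, and the soil surface was sprayed with a water-diluted emulsion of the compound at a predetermined rate. Plants grew in a greenhouse at 25° C. to 30° C.; effects were scored visually 3 weeks after application.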

Abutilon theophrasti = assay: Test Example 5: herbicidal effect by foliage application, plastic box (symbol M); settings: 320 g/ha, 3 weeks after application
Summary of the method: as §1

Veronica persica [2] = assay: Test Example 4: herbicidal effect by soil treatment (symbol R); settings: application herbicide amount 320 g/ha
Summary of the method: as §2

Setaria viridis [3] = assay: Test Example 5: herbicidal effect by foliage application, plastic box (symbol G); settings: 320 g/ha, 3 weeks after application
Summary of the method: as §1

Apera spica-venti [4] = assay: Test Example 4: herbicidal effect by soil treatment (symbol L); settings: application herbicide amount 320 g/ha
Summary of the method: as §2

rapeseed [5] = assay: Test Example 5: effect on crop by foliage application, plastic box (symbol g); settings: 320 g/ha, 3 weeks after application
Summary of the method: (§3)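 Foliage-application test plants come from spot sowing in sterilized diluvial soil under a soil layer of about 1.5 cm, grown at 25° C. to 30° C. in a greenhouse.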

soybean = assay: Test Example 5: effect on crop by foliage application, plastic box (symbol d); settings: 320 g/ha, 3 weeks after application
Summary of the method: as §3

rice = assay: Test Example 4: effect on crop by soil treatment (symbol b); settings: application herbicide amount 320 g/ha
Summary of the method: (§4)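 Seeds were sown in spots on sterilized diluvial soil in a plastic box and covered with about 1.5 cm of soil. Plants were then grown in a greenhouse at 25° C. to 30° C.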

Avena fatua [6] = assay: Test Example 5: herbicidal effect by foliage application, plastic box (symbol I); settings: 320 g/ha, 3 weeks after application
Summary of the method: as §1

[7] = tested on: Echinochloa crus-galli var. crus-galli; assay: Test Example 5: herbicidal effect by foliage application, plastic box (symbol H); settings: 320 g/ha, 3 weeks after application
Summary of the method: as §1

rapeseed [8] = assay: Test Example 4: effect on crop by soil treatment (symbol g); settings: application herbicide amount 320 g/ha
Summary of the method: as §4

Veronica persica [9] = assay: Test Example 5: herbicidal effect by foliage application, plastic box (symbol R); settings: 320 g/ha, 3 weeks after application
Summary of the method: as §1

Scirpus juncoides = assay: Test Example 1: herbicidal activity, application before weed generation in submerged conditions (symbol B); settings: application herbicide amount 320 g/ha
Summary of the method: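 Compound emulsion was diluted to a set herbicide amount and applied to the water surface on the sowing day, into submerged (4 cm) alluvial-soil pots sown with mixed weed seeds and transplanted 2.5-leaf rice. Pots were held in a 25–30 °C greenhouse, and weeds were scored 0–5 by herbicidal ratio after 3 weeks.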

Avena fatua [10] = assay: Test Example 4: herbicidal effect by soil treatment (symbol I); settings: application herbicide amount 320 g/ha
Summary of the method: as §2

Apera spica-venti [11] = assay: Test Example 5: herbicidal effect by foliage application, plastic box (symbol L); settings: 320 g/ha, 3 weeks after application
Summary of the method: as §1

Chenopodium album = assay: Test Example 5: herbicidal effect by foliage application, plastic box (symbol O); settings: 320 g/ha, 3 weeks after application
Summary of the method: as §1

Structure (SMILES)	F: Digitaria ciliaris, herbicidal effect grade (Digitaria ciliaris)	Herbicidal effect grade, C: Monochoria vaginalis (Monochoria vaginalis)	G (Setaria viridis) herbicidal effect grade (Setaria viridis [1])	M: Abutilon theophrasti, herbicidal effect grade (Abutilon theophrasti)	R (Veronica persica) herbicidal effect grade (Veronica persica [2])	G: Setaria viridis, herbicidal effect grade (Setaria viridis [3])	L (Apera spica-venti) herbicidal effect grade (Apera spica-venti [4])	g: rapeseed, effect on crop grade (rapeseed [5])	d: soybean, effect on crop grade (soybean)	b (directly sowed rice plant) effect on crop grade (rice)	I: Avena fatua, herbicidal effect grade (Avena fatua [6])	H: Echinochloa crus-galli var. crus-galli, herbicidal effect grade [7]	g (rapeseed) effect on crop grade (rapeseed [8])	R: Veronica persica, herbicidal effect grade (Veronica persica [9])	Herbicidal effect grade, B: Scirpus juncoides (Scirpus juncoides)	I (Avena fatua) herbicidal effect grade (Avena fatua [10])	L: Apera spica-venti, herbicidal effect grade (Apera spica-venti [11])	O: Chenopodium album, herbicidal effect grade (Chenopodium album)
CC(CC1CC(O)=C(c2c(C)cc(C)cc2C)C1=O)=NOc1ccccc1 (stereo not drawn) [1-057]	3 (Herbicidal ratio of 40% or higher and lower than 70%)	0 (Herbicidal ratio of 5% or lower (almost no effect))	4 (Herbicidal ratio of 70% or higher and lower than 90%)	1 (Herbicidal ratio of 5% or higher and lower than 20%)	0 (Herbicidal ratio of 5% or lower (almost no effect))	3 (Herbicidal ratio of 40% or higher and lower than 70%)	4 (Herbicidal ratio of 70% or higher and lower than 90%)	4 (Herbicidal ratio of 70% or higher and lower than 90%)	3 (Herbicidal ratio of 40% or higher and lower than 70%)	5 (Herbicidal ratio of 90% or more (almost completely withered))	2 (Herbicidal ratio of 20% or higher and lower than 40%)	4 (Herbicidal ratio of 70% or higher and lower than 90%)	4 (Herbicidal ratio of 70% or higher and lower than 90%)	0 (Herbicidal ratio of 5% or lower (almost no effect))	3 (Herbicidal ratio of 40% or higher and lower than 70%)	0 (Herbicidal ratio of 5% or lower (almost no effect))	1 (Herbicidal ratio of 5% or higher and lower than 20%)	0 (Herbicidal ratio of 5% or lower (almost no effect))
CON=C(C)CC1CC(OC(=O)C(C)Oc2ccccc2)=C(c2c(C)cc(C)cc2C)C1=O (stereo not drawn) [1-060]	5 (Herbicidal ratio of 90% or more (almost completely withered))	0 (Herbicidal ratio of 5% or lower (almost no effect))	5 (Herbicidal ratio of 90% or more (almost completely withered))	3 (Herbicidal ratio of 40% or higher and lower than 70%)	0 (Herbicidal ratio of 5% or lower (almost no effect))	5 (Herbicidal ratio of 90% or more (almost completely withered))	5 (Herbicidal ratio of 90% or more (almost completely withered))	4 (Herbicidal ratio of 70% or higher and lower than 90%)	4 (Herbicidal ratio of 70% or higher and lower than 90%)	5 (Herbicidal ratio of 90% or more (almost completely withered))	5 (Herbicidal ratio of 90% or more (almost completely withered))	5 (Herbicidal ratio of 90% or more (almost completely withered))	3 (Herbicidal ratio of 40% or higher and lower than 70%)	3 (Herbicidal ratio of 40% or higher and lower than 70%)	4 (Herbicidal ratio of 70% or higher and lower than 90%)	3 (Herbicidal ratio of 40% or higher and lower than 70%)	5 (Herbicidal ratio of 90% or more (almost completely withered))	3 (Herbicidal ratio of 40% or higher and lower than 70%)
CCCC(CC1CC(O)=C(c2c(C)cc(C)cc2C)C1=O)=NOC (stereo not drawn) [1-062]	1 (Herbicidal ratio of 5% or higher and lower than 20%)	0 (Herbicidal ratio of 5% or lower (almost no effect))	5 (Herbicidal ratio of 90% or more (almost completely withered))	0 (Herbicidal ratio of 5% or lower (almost no effect))	0 (Herbicidal ratio of 5% or lower (almost no effect))	4 (Herbicidal ratio of 70% or higher and lower than 90%)	4 (Herbicidal ratio of 70% or higher and lower than 90%)	3 (Herbicidal ratio of 40% or higher and lower than 70%)	0 (Herbicidal ratio of 5% or lower (almost no effect))	5 (Herbicidal ratio of 90% or more (almost completely withered))	4 (Herbicidal ratio of 70% or higher and lower than 90%)	4 (Herbicidal ratio of 70% or higher and lower than 90%)	3 (Herbicidal ratio of 40% or higher and lower than 70%)	0 (Herbicidal ratio of 5% or lower (almost no effect))	2 (Herbicidal ratio of 20% or higher and lower than 40%)	0 (Herbicidal ratio of 5% or lower (almost no effect))	5 (Herbicidal ratio of 90% or more (almost completely withered))	0 (Herbicidal ratio of 5% or lower (almost no effect))
CON=C(CC1CC(OC(=O)COc2ccccc2)=C(c2c(C)cc(C)cc2C)C1=O)C1CC1 (stereo not drawn) [1-063]	1 (Herbicidal ratio of 5% or higher and lower than 20%)	0 (Herbicidal ratio of 5% or lower (almost no effect))	5 (Herbicidal ratio of 90% or more (almost completely withered))	2 (Herbicidal ratio of 20% or higher and lower than 40%)	0 (Herbicidal ratio of 5% or lower (almost no effect))	5 (Herbicidal ratio of 90% or more (almost completely withered))	5 (Herbicidal ratio of 90% or more (almost completely withered))	4 (Herbicidal ratio of 70% or higher and lower than 90%)	3 (Herbicidal ratio of 40% or higher and lower than 70%)	5 (Herbicidal ratio of 90% or more (almost completely withered))	5 (Herbicidal ratio of 90% or more (almost completely withered))	5 (Herbicidal ratio of 90% or more (almost completely withered))	0 (Herbicidal ratio of 5% or lower (almost no effect))	4 (Herbicidal ratio of 70% or higher and lower than 90%)	3 (Herbicidal ratio of 40% or higher and lower than 70%)	3 (Herbicidal ratio of 40% or higher and lower than 70%)	5 (Herbicidal ratio of 90% or more (almost completely withered))	0 (Herbicidal ratio of 5% or lower (almost no effect))
